This is an account of results in EP4186500A1, “MEK INHIBITORS FOR THE PREVENTION AND TREATMENT OF LONG COVID SYNDROME” (Atriva Therapeutics GmbH, priority 2021, dated 2023).

Data set [1] relates to SARS-CoV-2. Description: SARS-CoV-2 Syrian hamster infection model. The note with it: for reduction of progeny virus in throat swabs (TCID50 assay): 100mg/kg loading dose then 75mg/kg daily, oral; for reduction of progeny virus in throat swabs (TCID50 assay) / reduction of viral load in throat swabs (PCR): day 3 p.i.
The subject of data set [2] is Human T-cell Inflammation. The data set can be described thus: T-cell inflammation inhibition assay (Anti-CD3 stimulation) in PBMC. The note with it: 100, 50, and 25 µM, 24 hours, PBMC from three human donors.
The subject of a further data set is pERK1/2. The data set can be described thus: Wes analysis of ERK phosphorylation in SARS-CoV-2 infected Caco-2 cells. It is filed as cell-based, Homo sapiens. The settings on record: CaCo-2 cells infected SARS-CoV-2 (MOI 0.1); 50 and 100 µM ATR-002; 24h. The procedure:
For the Virus yield reduction assay a 24-well plate (Greiner Bio-One, Cat. 662-160) with 95% confluent Caco-2 cells was prepared. The wells were washed once with Caco-2 infection medium DMEM (Gibco, Cat. 41965-039) supplemented with 5% FCS (Capricorn, Cat. FBS-12A), 1% Penicillin/Streptomycin, (Sigma Aldrich, Cat. P4333) and 1% Non-essential amino acids (NEAA) (Merck, Cat. K 0293). Cells were infected with SARS-CoV-2 (MOI 0.1) for 1h in 200µL Caco-2 infection medium per well. Afterwards the Virus inoculum was removed completely and cells were treated with 1mL per well with different concentrations of ATR-002 (100µM, 50µM, 25µM, 12.5µM, 6.25µM, 3.125µM, 1.56µM, 0.78µM, 0.39µM, 0.195µM, 0.098µM, 0µM) in Caco-2 infection medium with 1% DMSO for 24h at 37°C, 5% CO2. […]
Wes™ capillary electrophoresis by ProteinSimple® was used to identify and quantify pERK1/2, ERK1/2 and SARS-CoV-2 Nucleoprotein. Cell lysates were diluted with 0.1X Sample Buffer (ProteinSimple, Abingdon, Oxford, UK) to approximately 50ng total protein per lane and analyzed using specific antibodies. […] The anti-rabbit secondary antibody (ProteinSimple, Cat. DM-001) and anti-mouse secondary antibody (ProteinSimple, Cat. DM-002) and all other reagents for WES analysis were also purchased from ProteinSimple and were ready to use.

In data set [3] the test system is SARS-CoV-2. It counts as cell-based, Severe acute respiratory syndrome coronavirus. The settings on record: CaCo-2 cells, MOI 0.1; 50 and 100 µM ATR-002; 24h.
In another data set the test system is SARS-CoV-2 (FI). It is filed as cell-based, Severe acute respiratory syndrome coronavirus.
In data set [4] the test system is SARS-CoV-2 viral gene RdRP. It counts as cell-based, Severe acute respiratory syndrome coronavirus. The settings on record: Vero cells, MOI 0.01; 50 µM ATR-002; 24, 36 and 48 hpi.

`O=C(O)c1ccc(F)c(F)c1Nc1ccc(I)cc1Cl` [ATR-002, 2-(2-chloro-4-iodophenylamino)-N-3,4-difluoro benzoic acid]: the “tolerability, weight loss, adverse effects” value in the data set with SARS-CoV-2 [1] (both treatment groups compared to vehicle group) was “well tolerated without significant weight loss”. The “alveolar haemorrhage, oedema and type II pneumocyte hyperplasia” value in the data set with SARS-CoV-2 [1] (histopathology 4 days post infection, treated at days 1, 2, and 3 post infection) is “no haemorrhage, oedema and type II pneumocyte hyperplasia”. In addition, the score in alveolitis in the data set with SARS-CoV-2 [1] (histopathology 4 days post infection, treated at days 1, 2, and 3 post infection, vehicle score 3) is reported as 1. In the data set on SARS-CoV-2 [1] (treated 4 hours p.i.), the “reduction of progeny virus in throat swabs (TCID50 assay)” value stood at 1.1 log10 and the “reduction of viral load in throat swabs (PCR)” value is 1.1 log10. Further, in the data set with SARS-CoV-2 [1] (treated 24 hours p.i.), the “reduction of progeny virus in throat swabs (TCID50 assay)” value is 1.3 log10 and the “reduction of viral load in throat swabs (PCR)” value was determined as 1.2 log10. In the data set with SARS-CoV-2 [1] (treatment 4 hours p.i., day 4 p.i., P=0.0282), the “percentage of affected lung area” value is “significantly reduced affected lung tissue”. For the same compound, in the data set with SARS-CoV-2 [1] (treatment 24 hours p.i., day 4 p.i., P=0.0314), the “percentage of affected lung area” value is on record as “significantly reduced affected lung tissue”. In addition, the “reduction in infectious virus titers (TCID50/g tissue) in the nasal turbinates” value in the data set with SARS-CoV-2 [1] (treatment start 4 hours p.i., day 4 p.i.) amounted to 1.3 log10. The “reduction of viral load in the nasal turbinates (PCR)” value in the data set with SARS-CoV-2 [1] (treatment started 4 hours p.i., day 4 p.i.) was 1.1 log10. In addition, in the data set on SARS-CoV-2 [1] (treatment started 24 hours p.i., day 4 p.i.), the “infectious virus titers in the nasal turbinates” value was “not the treatment started 24 hours p.i., significantly reduced infectious virus titers”. Moreover, the “inhibition of cytokine/chemokine stimulation” value in data set [2] is listed as “significant, dose dependent inhibition”. Also, in the data set on pERK1/2, the ERK-phosphorylation entry is reported as “inhibition”. Also, in the data set on SARS-CoV-2 [3], the SARS-CoV-2 virus titer entry is on record as “inhibition” and the nucleocapsid protein entry is given as “inhibition”. Further, the “cell damage of infected cells (light microscopy)” value in the data set on SARS-CoV-2 (FI) (Calu-3 cells infected with SARS-CoV-2, Figure 6 D) is listed as “did not show the characteristic cell damage”. Moreover, the “production of progeny viral particles” value in the data set on SARS-CoV-2 (FI) (Calu-3 cells, MOI 0.01, ATR-002 10 - 150 µM, 24, 48 or 72 hours) is “concentration dependent decrease in the production of progeny viral particles”. Also, the “SARS-CoV-2 viral gene RdRP genome copy number” value in data set [4] was “confirmed”.
